In article PMC10781750, “Structural basis of antiphage immunity generated by a prokaryotic Argonaute-associated SPARSA system” (Nature Communications, 2024):

How the values were obtained:
[1] = target: T1, SPARSA (GsSir2/pAgo heterodimer) (Geobacter sulfurreducens, UniProt Q74DF6); experiment: NADase assay, residual NAD+ by NAD/NADH quantitation kit (absorbance […] nm); assay type: biochemical; settings: 1 uM SPARSA, 10 uM NAD+, 2 uM gRNA and tDNA (required for activity), 10 mM HEPES pH 7.5, 125 mM KCl, 37 C
T1 construct: gene GSU1360; full-length GsSir2 and pAgo coexpressed in E. coli BL21(DE3); 6xHis-SPARSA (also His-SUMO version, SUMO cut by TEV); 1:1 heterodimer; with Short prokaryotic Argonaute (Piwi domain-containing protein)

[2] = target: T1, SPARSA (GsSir2/pAgo heterodimer); experiment: cryo-EM structures ([…] A without, […] A with gRNA/tDNA); assay type: binding; settings: endogenous NAD+ copurified; bound in Sir2 domain cleft between Rossmann fold and small domain, near N142 and H186; seen without and with gRNA/tDNA

T1 sequence (Q74DF6 1-587): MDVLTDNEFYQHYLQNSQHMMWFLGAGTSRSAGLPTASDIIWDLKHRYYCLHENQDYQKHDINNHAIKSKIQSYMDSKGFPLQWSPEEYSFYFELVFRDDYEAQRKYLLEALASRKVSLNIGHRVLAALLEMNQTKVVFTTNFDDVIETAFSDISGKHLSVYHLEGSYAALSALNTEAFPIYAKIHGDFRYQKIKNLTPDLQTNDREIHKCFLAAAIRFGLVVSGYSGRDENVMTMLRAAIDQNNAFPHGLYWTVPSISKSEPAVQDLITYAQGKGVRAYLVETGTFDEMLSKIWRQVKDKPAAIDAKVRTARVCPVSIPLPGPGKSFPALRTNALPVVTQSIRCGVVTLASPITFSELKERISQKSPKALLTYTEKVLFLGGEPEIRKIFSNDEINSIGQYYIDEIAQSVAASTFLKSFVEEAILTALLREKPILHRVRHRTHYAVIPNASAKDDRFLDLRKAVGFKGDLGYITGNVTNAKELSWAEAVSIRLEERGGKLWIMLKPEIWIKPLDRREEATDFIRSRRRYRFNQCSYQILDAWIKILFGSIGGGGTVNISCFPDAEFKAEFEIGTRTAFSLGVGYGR
T1 sequence (Q74DF5 1-473 partner): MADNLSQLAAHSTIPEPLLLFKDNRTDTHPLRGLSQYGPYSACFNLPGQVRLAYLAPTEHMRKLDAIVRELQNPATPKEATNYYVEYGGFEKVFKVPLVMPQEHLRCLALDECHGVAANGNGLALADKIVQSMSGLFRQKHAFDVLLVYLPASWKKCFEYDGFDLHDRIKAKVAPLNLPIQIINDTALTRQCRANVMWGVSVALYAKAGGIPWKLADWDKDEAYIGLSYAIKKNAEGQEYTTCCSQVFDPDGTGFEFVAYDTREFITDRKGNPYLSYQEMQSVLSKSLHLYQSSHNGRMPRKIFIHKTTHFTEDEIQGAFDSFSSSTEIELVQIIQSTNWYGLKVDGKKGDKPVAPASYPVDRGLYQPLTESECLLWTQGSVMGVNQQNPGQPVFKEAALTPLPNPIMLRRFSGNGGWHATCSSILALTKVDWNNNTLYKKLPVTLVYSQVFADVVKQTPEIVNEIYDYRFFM

NC(=O)c1ccc[n+]([C@@H]2O[C@H](COP(=O)([O-])OP(=O)(O)OC[C@H]3O[C@@H](n4cnc5c(N)ncnc54)[C@H](O)[C@@H]3O)[C@@H](O)[C@H]2O)c1 [NAD^+]
NADase assay, residual NAD+ by NAD/NADH quantitation kit (absorbance 450 nm) [1]: nearly no NAD^+ remained in the wild-type SPARSA
cryo-EM structures (3.6 A without, 3.1 A with gRNA/tDNA) [2]: a density within the crevice near the catalytic residues N142 and H186 was observed
